Data reported in US8106055B2, “Substituted amide compounds” (Gruenenthal GmbH, priority 2007, dated 2012).

Assays:
[1] = target: T1, bradykinin 1 receptor (B1R) of the rat (Rattus norvegicus, UniProt P97583); experiment: Functional investigation on the rat bradykinin 1 receptor (B1R), Ca2+ FLIPR assay in CHO K1 rB1R cells; assay type: cell-based; settings: CHO-K1, B1R antagonism rat; test substance 10 μM; Ca2+ FLIPR, CHO K1 rB1R cells; read-out: B1R Ant. r [10 μM] % Inhibition
T1 construct: expressed in transfected cells; host or cells: CHO K1 cells
T1 sequence (P97583 1-337): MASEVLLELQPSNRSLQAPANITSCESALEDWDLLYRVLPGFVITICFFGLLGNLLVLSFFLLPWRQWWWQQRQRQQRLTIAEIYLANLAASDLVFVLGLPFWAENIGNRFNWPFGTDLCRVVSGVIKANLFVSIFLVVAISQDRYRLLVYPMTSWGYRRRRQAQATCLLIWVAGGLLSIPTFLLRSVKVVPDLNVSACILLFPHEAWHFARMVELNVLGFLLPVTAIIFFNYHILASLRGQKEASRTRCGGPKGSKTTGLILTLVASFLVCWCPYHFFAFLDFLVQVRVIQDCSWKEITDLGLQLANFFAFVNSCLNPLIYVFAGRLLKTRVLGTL
In short: (§1)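 Fluo-4 Ca2+ readout, peak fluorescence. Stable CHO K1 transfectants; compound pre-incubated 10-20 min, then EC80 agonist—Lys-Des-Arg9-BK for hB1R, Des-Arg9-BK for rB1R. % inhibition vs maximal inhibition; IC50 from multiple concentrations, duplicate/triplicate, ≥2 independent runs.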

[2] = target: T2, human bradykinin 1 receptor (B1R) (Homo sapiens, UniProt P46663); experiment: Functional investigation on the human bradykinin 1 receptor (B1R), Ca2+ FLIPR assay in CHO K1 hB1R cells; assay type: cell-based; settings: CHO-K1, B1R antagonism human; test substance 10 μM; Ca2+ FLIPR, CHO K1 hB1R cells; read-out: B1R Ant. h [10 μM] % Inhibition
T2 construct: expressed in transfected cells; host or cells: CHO K1 cells
T2 sequence (P46663 1-353): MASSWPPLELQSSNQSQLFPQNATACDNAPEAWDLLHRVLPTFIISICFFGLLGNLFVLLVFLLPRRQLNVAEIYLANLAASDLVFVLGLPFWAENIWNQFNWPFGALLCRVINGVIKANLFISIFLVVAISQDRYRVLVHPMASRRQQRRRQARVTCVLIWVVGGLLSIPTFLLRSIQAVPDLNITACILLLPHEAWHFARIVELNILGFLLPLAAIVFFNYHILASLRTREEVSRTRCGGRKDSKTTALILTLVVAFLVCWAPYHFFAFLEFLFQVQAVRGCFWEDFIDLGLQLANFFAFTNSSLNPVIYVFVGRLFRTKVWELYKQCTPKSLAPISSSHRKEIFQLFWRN
In short: as §1

SMILES | inhibition at 10 µM [1] [%] | inhibition at 10 µM [2] [%]
COc1ccc(S(=O)(=O)N2CCCCC2COCC(=O)NCCC2CCC(C(c3cccs3)N(C)C)CC2)cc1 (stereo not shown) [Example 30, N-(2-(4-((dimethylamino)(thiophen-2-yl)methyl)cyclohexyl)ethyl)-2-((1-(4-methoxyphenylsulfonyl)piperidin-2-yl)methoxy)acetamide] | 72 | 81
CN(C)C(c1cccs1)C1CCC(CNC(=O)COC2CCCCC2N(C)S(=O)(=O)c2ccc(Cl)c(Cl)c2)CC1 (stereo not shown) [Example 31, 2-(2-(3,4-dichloro-N-methylphenylsulfonamido)cyclohexyloxy)-N-((4-((dimethylamino)(thiophen-2-yl)methyl)cyclohexyl)methyl)acetamide] | 11 | 10
CN(C)C(c1cccs1)C1CCC(CCNC(=O)COCCN(C)S(=O)(=O)c2cccc(C(F)(F)F)c2)CC1 (stereo not shown) [Example 32, N-(2-(4-((dimethylamino)(thiophen-2-yl)methyl)cyclohexyl)ethyl)-2-(2-(N-methyl-3-(trifluoromethyl)phenylsulfonamido)ethoxy)acetamide] | 14 | 32
CN(C)C(c1ccccc1)C1CCC(NC(=O)COCCN(C)S(=O)(=O)c2ccc(Cl)cc2Cl)CC1 (stereo not shown) [Example 33, 2-(2-(2,4-dichloro-N-methylphenylsulfonamido)ethoxy)-N-(4-((dimethylamino)(phenyl)methyl)cyclohexyl)acetamide] | 9 | 77
CN(C)C(c1ccccc1)C1CCC(NC(=O)COCCN(C)S(=O)(=O)c2c(F)c(F)c(F)c(F)c2F)CC1 (stereo not shown) [Example 136, N-(4-((dimethylamino)(phenyl)methyl)cyclohexyl)-2-(2-(2,3,4,5,6-pentafluoro-N-methylphenylsulfonamido)ethoxy)acetamide] | -2 | 87
COc1cc(C)c(S(=O)(=O)N(C)CCOCC(=O)NCC2CCC(C(c3ccccc3)N(C)C)CC2)c(C)c1 (stereo not shown) [Example 137, N-((4-((dimethylamino)(phenyl)methyl)cyclohexyl)methyl)-2-(2-(4-methoxy-N,2,6-trimethylphenylsulfonamido)ethoxy)acetamide] | 100 | 102
CN(C)C(c1cccs1)C1CCC(CCNC(=O)COC2CCN(S(=O)(=O)c3ccc(F)cc3)C2)CC1 (stereo not shown) [Example 138, N-(2-(4-((dimethylamino)(thiophen-2-yl)methyl)cyclohexyl)ethyl)-2-(1-(4-fluorophenylsulfonyl)pyrrolidin-3-yloxy)acetamide] | 30 | 2
CN(C)C(c1cccc(F)c1)C1CCC(NC(=O)COC2CCN(S(=O)(=O)c3cccc(C(F)(F)F)c3)C2)CC1 (stereo not shown) [Example 139, N-(4-((dimethylamino)(3-fluorophenyl)methyl)cyclohexyl)-2-(1-(3-(trifluoromethyl)phenylsulfonyl)pyrrolidin-3-yloxy)acetamide] | 21 | -5
Cc1cc(C)c(S(=O)(=O)N2CCC(OCC(=O)NC3CCC(C(c4cccc(F)c4)N(C)C)CC3)C2)c(C)c1 (stereo not shown) [Example 140, N-(4-((dimethylamino)(3-fluorophenyl)methyl)cyclohexyl)-2-(1-(mesitylsulfonyl)pyrrolidin-3-yloxy)acetamide] | 30 | 43
Cc1cc(C)c(S(=O)(=O)N2CCC(OCC(=O)NCC3CCC(C(c4cccc(F)c4)N(C)C)CC3)C2)c(C)c1 (stereo not shown) [Example 141, N-((4-((dimethylamino)(3-fluorophenyl)methyl)cyclohexyl)methyl)-2-(1-(mesitylsulfonyl)pyrrolidin-3-yloxy)acetamide] | 26 | 54
COc1ccc(S(=O)(=O)N(C)CCOCC(=O)NCC2CCC(C(c3cccs3)N(C)C)CC2)cc1 (stereo not shown) [Example 142, N-((4-((dimethylamino)(thiophen-2-yl)methyl)cyclohexyl)methyl)-2-(2-(4-methoxy-N-methylphenylsulfonamido)ethoxy)acetamide] | 41 | 50
